Several values for one entry are separate records, joined by “and”; a condition that tells them apart may be missing. Identical values can stand only once. Like-named read-outs stand apart in the source and are kept apart here.

The experiment has as its system Friend Leukemia Virus. The experiment is described as follows: Inhibition of Friend Leukemia Virus-induced splenomegaly in mice, compounds intraperitoneally 24 hours after virus (Example 1(a)). It is filed as in vivo, BALB/c mice. Also noted: Actual Spleen Weight / Average Spleen Weight: unit not given here. Conditions: for Actual Spleen Weight: single animal; for inhibition of FV-induced splenomegaly / anti-retroviral activity: Example 1(a); for inhibition in vivo at 0.1 mg / inhibition in vivo at 0.05 mg / inhibition in vivo at 0.2 mg: Mus musculus, ip; for Pooled Average % Inhibition: pooled over 50, 100, 200, 2 × 100 micrograms. An excerpt: The effects of compositions according to the present invention on infection of mammals with Friend Leukemia Virus (FV) were examined.
Friend Leukemia Virus is an aggressive retrovirus which induces an acute erythroleukemia in sensitive strains of mice such as BALB/c and NIH swiss mice as described in Friend, C. J., Exp. Med. 105: 307-324, 1957; Friend, C. et al. Proc. Natl. Acad. Sci. USA 68: 378-383, 1971; Friend, C. et al. Natl. Cancer Inst. Mongr. 22: 508-552, 1966. The malignant transformation is the result of the combined activities of the Spleen Focus Forming Virus (SFFV) and the ecotropic Murine Friend Leukemia Helper Virus (F-MuLV). The acute erythroleukemia is characterized by hepatosplenomegaly (a marked increase in the size of the spleen and liver) and a severe anemia.
Friend Leukemia Virus was prepared by homogenizing the enlarged spleen of a mouse previously infected with FV, 10 days after intravenous virus injection. The spleen was homogenized in phosphate buffered saline in a volume equal to ten times the weight of the isolated spleen.
The effects of compositions according to the present invention on the increase in spleen size (splenomegaly) of BALB/c mice (Jackson Labs, Bar Harbor, ME) was examined. In these experiments, the virus (10^6 focus forming units--FFU) was inoculated intravenously and 100 micrograms of the compounds indicated in Table II were administered to the mice intraperitoneally 24 hours later. Each compound was administered once to two mice. The animals were sacrificed ten days later and their spleens weighed.
The present assay has been developed from similar assays using hypericin or pseudohypericin and employing higher numbers of experimental animals per group (e.g. 4 animals). It was discovered however that the specificity and sensitivity of this assay are such that an experimental group of two animals is of more than adequate predictive value.
As used in Table II (and subsequent Tables of this Example l(a) and (b), "average percent inhibition" is calculated as follows: [formula] wherein "ASWNC" designates "average spleen weight of negative control"; "ASWE" designates "average spleen weight of experimental (treated) subject"; and "ASWPC" designates "average spleen weight of positive control". Average spleen weight is the numerical average of spleen weights of each experimental group (in Table II each such group includes two members).
In these experiments, the virus (10^6 focus forming units--FFU) was inoculated intravenously, and the indicated doses of the antiviral compounds of this invention were administered to the BALB/c mice intraperitoneally 24 hours later. The animals were then sacrificed ten days later and their spleens weighed.
Pseudohypericin was diluted in phosphate buffered saline with 1% ethanol.
An expanded series of experiments was next performed in which various concentrations (i.e. 50, 100, 200 and 2×100, i.e., 100 micrograms administered twice) of a different set of PAC compounds (numbers 16-29 and 30-36 in Table III below) were administered intraperitoneally each according to the same protocol described above. Compounds 16-29 all had 3-5 fused, aromatic rings and no side groups except for oxygen or hydroxyl groups, whereas compounds 30-36 all had 3 fused aromatic rings and side chains selected from the group of oxygen, hydroxyl and methyl.
When 2 doses of the compounds were given, the second dose was administered 24-48 hours after the first injection. The animals were infected and splenomegaly determined as above for the compounds in Table II. In Table III, "pooled average percent inhibition" is calculated by adding the average percent inhibition for each experiment with the same compound and dividing the sum by the number of experiments (i.e. the number 4). […]

Where [1] appears, read: 100 micrograms i.p. once, 24 h after FV, Table II.
[2] abbreviates: 24 h, read-out: Average % Inhibition, 100 micrograms i.p. once, 24 h after FV, Table II.
Setting [3] is: 24 h, 100 micrograms i.p. once, 24 h after FV, Table II, read-out: Average % Inhibition.
Setting [4] is: dose 2 × 100 (micrograms) i.p., Table III.
Where [5] appears, read: dose 50 (micrograms) i.p., Table III.
Where [6] appears, read: dose 100 (micrograms) i.p., Table III.
The mark [7] stands for this setting: dose 200 (micrograms) i.p., Table III.
Where [8] appears, read: dose 2 × 100 (micrograms) i.p., Table III, read-out: Average Perdosage % Inhibition.
Setting [9] is: dose 50 (micrograms) i.p., Table III, read-out: Average Perdosage % Inhibition.
The mark [10] stands for this setting: dose 100 (micrograms) i.p., Table III, read-out: Average Perdosage % Inhibition.
[11] abbreviates: dose 200 (micrograms) i.p., Table III, read-out: Average Perdosage % Inhibition.

Consider `c1cc2cccc3c2c(c1)c1c2c4cccc5cccc(c54)c2c2c4cccc5cccc(c54)c2c31` [Compound 1, Decacyclene], for which the “inhibition of FV-induced splenomegaly / anti-retroviral activity” value is “significantly inhibited FV-induced splenomegaly”. In addition, under setting [1], the “Average % Inhibition” value is reported as 57.5%; the “Average Spleen Weight” value was 0.3636; the “Actual Spleen Weight” value was 0.3940 and 0.3331.

`O=C1OC(=O)c2ccc3c4ccc5c6c(ccc(c7ccc1c2c73)c64)C(=O)OC5=O` [Compound 2, 3,4,9,10-Perylenetetracarboxylic dianhydride]: under setting [1], the “Average % Inhibition” value was 1.3%; the “Average Spleen Weight” value is listed as 0.8439; the “Actual Spleen Weight” value was 0.8678 and 0.8200.

On to `O=C1c2ccccc2-c2ccc3c4ccc5c6c(ccc(c7ccc1c2c73)c64)-c1ccccc1C5=O` [Compound 3, Isoviolanthrone], for which, under setting [1], the “Average % Inhibition” value was 41.5%; the “Average Spleen Weight” value is reported as 0.5001; the “Actual Spleen Weight” value is 0.5147 and 0.4855.

For `O=C1c2ccccc2-c2cc(O)c3c4c(O)cc5c6c(ccc(c7ccc1c2c73)c64)C(=O)c1ccccc1-5` [Compound 4, 16,17-Dihydroxydibenzanthrone], under setting [1], the “Average % Inhibition” value was found to be 50.9%; the “Average Spleen Weight” value is recorded as 0.4194; the “Actual Spleen Weight” value is 0.4151 and 0.4234.

With `O=c1oc(=O)c2c3ccc4cccc5c6cccc7ccc(c12)c(c76)c3c45` [Compound 5, Benzo(GHI)Perylene-1,2-Dicarboxylic Anhydride], the “Average Spleen Weight” value under setting [1] is given as 0.5101. Further, the inhibition in vivo at 0.1 mg under setting [2] amounted to 40.5%.

In the case of `O=c1oc(=O)c2c3ccc4ccc5ccc6ccc7ccc(c12)c1c7c6c5c4c31` [Compound 6, 3,4-Coronenedicarboxylic anhydride], the “Average Spleen Weight” value under setting [1] came out at 0.8700.

With `c1ccc2c(c1)C1c3ccccc3C2c2ccccc21` [Compound 7, Triptycene], the “inhibition of FV-induced splenomegaly / anti-retroviral activity” value is given as “significantly inhibited FV-induced splenomegaly”. Under setting [1], the “Average Spleen Weight” value is recorded as 0.4655. In addition, the inhibition in vivo at 0.1 mg under setting [3] came to 45.6%.

In the case of `c1cc2ccc3ccc4ccc5ccc6ccc1c1c2c3c4c5c61` [Compound 8, Coronene], the “inhibition of FV-induced splenomegaly / anti-retroviral activity” value is listed as “significantly inhibited FV-induced splenomegaly”. For the same compound, the “Average Spleen Weight” value under setting [1] is 0.4739. For the same compound, under setting [2], the inhibition in vivo at 0.1 mg was determined as 44.6%.

For the compound `Cc1cc2ccc3ccc4ccccc4c3c2c2c1ccc1ccccc12` [Compound 11, 3-Methylphenanthro(3,4-C)Phenanthrene], the “Average Spleen Weight” value under setting [1] was 0.4235. Also, the inhibition in vivo at 0.1 mg under setting [2] was 50.5%.

In the case of `CC1=CC2CCc3ccc4ccccc4c3C2c2c1ccc1ccccc21` (stereo not shown) [Compound 12, 4A,5,6,12C-Tetrahydro-3-Methylphenanthro (3,4-C)phenanthrene], under setting [1], the “Average Spleen Weight” value amounted to 0.4531. Moreover, under setting [2], the inhibition in vivo at 0.1 mg amounted to 47.1%.

Turning to `O=C1CC2CC(=O)c3ccc4ccccc4c3C2c2c1ccc1ccccc21` (stereo not shown) [Compound 13, 3,4,4A,5,6,12C-Hexahydrophenanthro (3,4-C)Phenanthrene-3,6-Dione], the “Average Spleen Weight” value under setting [1] is reported as 0.4742. The inhibition in vivo at 0.1 mg under setting [3] came out at 44.6%.

Consider `c1ccc2c(c1)ccc1ccc3ccc4ccc5ccccc5c4c3c12` [Compound 14, Phenanthro(3,4-C)Phenanthrene], for which, under setting [1], the “Average Spleen Weight” value came to 0.5419. Besides, the inhibition in vivo at 0.1 mg under setting [2] worked out at 36.6%.

As for `O=C1CC2CCc3ccc4ccccc4c3C2c2c1ccc1ccccc21` (stereo not shown) [Compound 15, 3,4,4A,5,6,12C-Hexahydrophenanthro (3,4-C)phenanthren-3-one], the “Average Spleen Weight” value under setting [1] turned out to be 0.3739. Under setting [3], the inhibition in vivo at 0.1 mg came out at 56.3%.

With `C1CCc2c(c3c(c4c2CCCC4)CCCC3)C1` [Compound 16, Dodecahydrotriphenylene], the “Actual Spleen Weight” value is 1.161 and 1.2072 (dose 2 × 100 (micrograms) i.p., second dose 24-48 hours later, Table III); 0.9062 and 0.9954 under setting [5]; 1.6206 and 1.5907 under setting [6]; 1.2007 and 1.2948 under setting [7]. In addition, the “Average Perdosage % Inhibition” value under setting [4] is recorded as 28%, the “Average Perdosage % Inhibition” value under setting [5] was determined as 44% and the “Average Perdosage % Inhibition” value under setting [7] stood at 24%. The “Average Spleen Weight” value by setting is: under setting [4], 1.1867; under setting [5], 0.9508; under setting [6], 1.6057; under setting [7], 1.2478. Also, under “Table III”, the “Pooled Average % Inhibition” value stood at 24%.

Consider `c1ccc2c(c1)ccc1ccccc12` [Compound 17, Phenanthrene], for which the inhibition in vivo at 0.1 mg by setting is: under setting [8], 36%; under setting [10], 21%. For the same compound, the inhibition in vivo at 0.05 mg under setting [9] was found to be 31%. Besides, the inhibition in vivo at 0.2 mg under setting [11] turned out to be 17%. In addition, the “Average Spleen Weight” value by setting is: under setting [4], 1.0683; under setting [5], 1.1350; under setting [6], 1.2864; under setting [7], 1.3501. Moreover, the “Pooled Average % Inhibition” value (Table III) was found to be 26%.

As to `c1ccc2c(c1)c1ccccc1c1ccccc21` [Compound 19, Triphenylene], the inhibition in vivo at 0.1 mg is, setting by setting: (read-out: Average Perdosage % Inhibition, dose 2 × 100 (micrograms) i.p., Table III) 13%; (read-out: Average Perdosage % Inhibition, dose 100 (micrograms) i.p., Table III) 4%. Further, under “read-out: Average Perdosage % Inhibition, dose 50 (micrograms) i.p., Table III”, the inhibition in vivo at 0.05 mg was 37%. Besides, the inhibition in vivo at 0.2 mg (read-out: Average Perdosage % Inhibition, dose 200 (micrograms) i.p., Table III) came to 13%. The “Average Spleen Weight” value under setting [4] was 1.4063, the “Average Spleen Weight” value under setting [5] is recorded as 1.0499, the “Average Spleen Weight” value under setting [6] worked out at 1.5345 and the “Average Spleen Weight” value under setting [7] turned out to be 1.3994. The “Pooled Average % Inhibition” value (Table III) was determined as 17%.

Take `c1ccc2c(c1)CCc1ccccc1-2` [Compound 20]: the inhibition in vivo at 0.1 mg under setting [8] is 6%. The inhibition in vivo at 0.05 mg under setting [9] worked out at 22%. Further, the inhibition in vivo at 0.2 mg under setting [11] worked out at 11%. Moreover, the “Average Spleen Weight” value under setting [4] came out at 1.5023, the “Average Spleen Weight” value under setting [5] is recorded as 1.2758, the “Average Spleen Weight” value under setting [6] is reported as 2.0019 and the “Average Spleen Weight” value under setting [7] turned out to be 1.4315. The “Pooled Average % Inhibition” value (Table III) is 3%.

As for `C1=CCC2=C(C1)CC1=C(CC=CC1)C2` [Compound 21, 1,4,5,8,9,10-Hexahydroanthracene], the inhibition in vivo at 0.1 mg came to 23% under setting [8] and 13% under setting [10]. Also, the inhibition in vivo at 0.05 mg under setting [9] is 13%. Further, under setting [11], the inhibition in vivo at 0.2 mg was 21%. Moreover, the “Average Spleen Weight” value is 1.2624 under setting [4], 1.4036 under setting [5], 1.4121 under setting [6] and 1.2947 under setting [7]. In addition, the “Pooled Average % Inhibition” value (Table III) stood at 17%.

These data come from patent US6150414A, “Compositions and methods for treating viral infections” (priority 1992, dated 2000).
